In paper PMC4595804, “A strategy to discover decoy chemokine ligands with an anti-inflammatory activity” (Scientific Reports, 2015):

Tests used:
CCL17 [1] = molecular target: T1, CCL17 (Homo sapiens, UniProt Q92583); assay: Tryptophan fluorescence assay on CCL17; type: binding; conditions: 0–25 μM compound
T1 construct: codes for the mature CCL17 or CCL22 with an N-terminal thioredoxin-hexahistidin (TRX- (His)6) tag; thioredoxin (TRX) (N, cleaved yes); (His)6 (N, cleaved yes); made in house; host or cells: E. coli BL21 (DE3)
T1 sequence (Q92583 24-94): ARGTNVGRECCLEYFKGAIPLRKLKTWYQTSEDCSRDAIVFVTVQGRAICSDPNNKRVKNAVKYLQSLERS
Protocol: Fluorescence measurements were performed on a spectrofluorometer (JobinYvon/Spex) in a quartz microcuvette at 20 °C. CCL17 and CCL22 (1.5 μM in HEPES buffer without BSA) were excited at 285 nm and emission spectra were recorded (300–400 nm). […] The fluorescence emission spectra were corrected by subtracting the emission scan of the compounds alone and data analysis was carried out with fluorescence intensities detected at 340 nm.

CCR4 = molecular target: T2, CCR4 (Homo sapiens, UniProt P51679); assay: TRIC-r calcium assay, antagonist protocol: compound preincubated with CCR4-expressing cells; type: cell-based; conditions: primary screen
T2 construct: signal peptide fused to EGFP (N); expressed in transfected cells; host or cells: HEK-293
T2 sequence (P51679 1-360): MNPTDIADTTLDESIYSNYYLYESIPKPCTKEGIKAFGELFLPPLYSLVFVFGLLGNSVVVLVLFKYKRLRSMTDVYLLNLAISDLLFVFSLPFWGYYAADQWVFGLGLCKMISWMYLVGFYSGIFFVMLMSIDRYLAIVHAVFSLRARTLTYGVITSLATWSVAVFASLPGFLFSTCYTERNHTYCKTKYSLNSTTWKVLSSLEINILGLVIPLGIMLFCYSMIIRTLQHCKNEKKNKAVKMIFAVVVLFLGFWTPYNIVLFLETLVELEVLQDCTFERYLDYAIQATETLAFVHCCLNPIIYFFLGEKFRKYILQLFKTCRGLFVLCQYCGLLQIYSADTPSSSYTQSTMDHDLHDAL
Protocol: (§1) Two plates (96-well plates, Greiner) were prepared for the screen: one containing test compounds alone in order to determine their direct agonistic activity, and another one containing test compounds mixed with CCL17 or CCL22 at room temperature for 1 h (neutraligand protocol). The chemokines and test compounds were prepared at a 3× concentration, while digitonin was prepared at a 4× concentration. The CCR4 antagonist, C-021 served as control in the experiment. In the antagonist protocol, compounds were added to the cell plate (one compound per well) and incubated with cells for 30 min at room temperature, while the agonist (CCL17 or CCL22) was added to the ligand plate only.
Dye loaded cells were placed in the FlexStation 3 (Molecular Devices). Calcium mobilization was measured at 401 and 475 nm emission fluorescence after excitation at 355 nm. For the primary screening, the ligands (50μl of chemokine mixed with DMSO or test compounds) were added to the cells at 40 s, followed by digitonin addition (50μl) at 100 s to the cells. […] Raw fluorescence data (at 401 and 475 nm) were exported and the ratio 401/475 was calculated. The calcium response values (height of peak response over baseline) were determined. […] Hit molecules were confirmed by performing concentration-response curves and their half maximal inhibitory concentration (IC50) values were calculated using the Kaleidagraph software.

CCL22 = molecular target: T3, CCL22 (Homo sapiens, UniProt O00626); assay: Tryptophan fluorescence assay on CCL22; type: binding; conditions: 0–25 μM compound
T3 construct: codes for the mature CCL17 or CCL22 with an N-terminal thioredoxin-hexahistidin (TRX- (His)6) tag; thioredoxin (TRX) (N, cleaved yes); (His)6 (N, cleaved yes); made in house; host or cells: E. coli BL21 (DE3)
T3 sequence (O00626 25-93): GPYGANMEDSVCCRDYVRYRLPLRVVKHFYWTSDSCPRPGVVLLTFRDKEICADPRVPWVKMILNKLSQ
Protocol: Fluorescence measurements were performed on a spectrofluorometer (JobinYvon/Spex) in a quartz microcuvette at 20 °C. […] The fluorescence emission spectra were corrected by subtracting the emission scan of the compounds alone and data analysis was carried out with fluorescence intensities detected at 340 nm.

CCR4+ HUT78 cells = assay: HUT78 chemotaxis: compounds alone or preincubated with the cells (antagonist protocol); type: cell-based, human; conditions: receptor antagonist protocol, 1 μM, 3 nM CCL17 or CCL22
Protocol: Cell migration was carried out in RPMI1640-BSA (0.1%) using Transwell 96-well plates (Corning Costar, 5 μm pore size, polycarbonate membranes). […] Lower wells contained the same medium diluted with DMSO or chemokine (3 nM CCL17 or CCL22).
0.1% BSA using Transwell 96-well plates (Corning Costar, 5µm pore size, polycarbonate […]
the same medium diluted with DMSO or chemokine (3nM CCL17 or CCL22). In neutraligand inhibition studies, prior to their use, CCL17 (a) and CCL22 (b) were pre-incubated with […]
in the lower compartment. For characterization of the antagonist properties, the compounds were pre-incubated with the cells in the upper compartment. C-021 (1µM, stripped bars), the CCR4 receptor antagonist, was used as a control in both incubation protocols. Results are expressed as the percentage of cells that migrated to the lower chamber. Data represent the means±SD. Experiments were performed in triplicate.
(1 picture or pasted object on this page, not shown here)

CCL17 [2] = molecular target: T1, CCL17; assay: TRIC-r calcium assay, neutraligand protocol: compound preincubated with CCL17, EGFP-CCR4+Gqi5+ HEK cells; type: cell-based; conditions: neutraligand protocol, control compound
Protocol: EGFP-CCR4^+Gqi5^+HEKcells were loaded with fluorescent Ca^2+-indicator Indo-1 AM (5μM, Interchim) for 45 min at 37 °C. […] Cells (100,000 cells/well, 100μl) were seeded in black clear bottom 96-well plates (Greiner), and centrifuged at 250 × g for 5 min.
as §1
Dye loaded cells were placed in the FlexStation 3 (Molecular Devices). […] For the primary screening, the ligands (50μl of chemokine mixed with DMSO or test compounds) were added to the cells at 40 s, followed by digitonin addition (50μl) at 100 s to the cells. Molecules were screened at a final concentration of 2μg/ml with 5 nM CCL17 or CCL22. […] The calcium response values (height of peak response over baseline) were determined. Hits were selected by comparing the response amplitude at the time of the chemokine addition ± test compound. The Z’ factor[29] was calculated according to the following equation: Z’ = 1-(3SD+ + 3SD−)/|Ave+ − Ave−|, where SD+ and Ave+ are respectively the standard deviation and the mean value of the positive controls (chemokine + DMSO), while SD− and Ave− are respectively the standard deviation and the mean value of the negative controls (HEPES-BSA (0.1%) mixed with DMSO, or cells mixed with C-021). Hit molecules were confirmed by performing concentration-response curves and their half maximal inhibitory concentration (IC50) values were calculated using the Kaleidagraph software.

## COc1cc2nc(N3CCC(N4CCCCC4)CC3)nc(NC3CCCCCC3)c2cc1OC [C-021, reference compound]
CCL17 [1]
  change in tryptophan fluorescence of CCL17: No significant change
CCR4
  effect on the response to CCL17 or CCL22 after preincubation with the receptor-expressing cells: abolished responses
CCL22
  change in tryptophan fluorescence of CCL22: No significant change
CCR4+ HUT78 cells
  inhibition of CCR4+ HUT78 T cell migration, compound preincubated with the cells: 90%
CCL17 [2]
  effect on CCL17 calcium responses after preincubation with the chemokine: not with the chemokine
